Source: patent publication US20140315786A1, “USE OF INTRACELLULAR ENZYMES FOR THE RELEASE OF COVALENTLY LINKED BIOACTIVES” (Catabasis Pharmaceuticals, Inc., priority 2011, published 2014)

How the values were obtained:
[1] = Sprague Dawley rat brain homogenate promoted cleavage of a linked bioactive, with and without FAAH inhibitor URB597; format: in vitro ADME; details: FIG. 1; 5 μM inhibitor
Protocol: The purpose of this assay was to measure the ability of Sprague Dawley rat brain homogenate to hydrolyze a linked bioactive in the presence of fatty acid amide hydrolase inhibitor URB597 (obtained from Cayman Chemical, cat #10046. Brains were harvested from male Sprague Dawley rats and were homogenized 1:4 (grams:mL) in 20 mM 4-(2-hydroxyethyl)-1-piperazineethanesulfonic acid, pH 7.0. Total protein in the rat brain homogenate was determined by a Bradford protein assay.
Linked bioactive was dissolved in methanol at 50 mM. Hydrolysis reactions were conducted with 500 μM of compound in a reaction buffer of 50 mM Hcpcs, 1 mM EDTA, 0.1% Triton X100, pH 8.0, and 1 mg/mL total protein from rat brain homogenate. Reactions were incubated at 37° C. The total reaction volume was 500 μL. Reactions were quenched by transferring 30 μL of reaction into 200 μL of acetonitrile containing 100 ng/mL of internal standard compound, after 0 hours, 1 hour, 2 hours, and 3 hours. […]
Generally, levels of parent linked bioactive and hydrolysis products were measured using an Agilent 1260 HPLC and an Agilent 6410 triple quadrapole mass spectrometer with an electrospray source and using multiple reaction monitoring and relevant mass/charge transitions. […] Injection volumes and flow rates were determined for each specific parent linked bioactive and relative hydrolysis products. […]

FAAH-1 = target: T1, FAAH-1 (Homo sapiens, UniProt O00519); assay: Hydrolysis in homogenate of COS-7 cells overexpressed with FAAH-1; format: biochemical; details: 5 μM inhibitor
T1 construct: expressed in transfected cells; host or cells: COS-7
T1 sequence (O00519 1-579): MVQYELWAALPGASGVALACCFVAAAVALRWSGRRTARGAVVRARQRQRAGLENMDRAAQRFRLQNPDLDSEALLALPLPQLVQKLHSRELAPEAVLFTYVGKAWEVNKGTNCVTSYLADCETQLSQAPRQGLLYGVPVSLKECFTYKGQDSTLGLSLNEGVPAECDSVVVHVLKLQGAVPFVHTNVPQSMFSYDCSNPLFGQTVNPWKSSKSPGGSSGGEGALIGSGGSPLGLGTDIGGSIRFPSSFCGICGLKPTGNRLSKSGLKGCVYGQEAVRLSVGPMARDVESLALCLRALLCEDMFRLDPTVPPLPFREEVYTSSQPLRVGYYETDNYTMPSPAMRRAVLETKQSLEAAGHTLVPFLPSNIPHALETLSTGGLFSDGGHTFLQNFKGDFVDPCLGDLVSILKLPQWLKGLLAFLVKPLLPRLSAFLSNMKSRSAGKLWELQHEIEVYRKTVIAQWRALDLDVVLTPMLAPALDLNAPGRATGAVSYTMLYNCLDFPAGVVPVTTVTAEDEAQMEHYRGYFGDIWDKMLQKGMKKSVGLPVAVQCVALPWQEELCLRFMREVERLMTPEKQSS
Protocol: (§1) Hydrolysis experiments using COS-7 cells overexpressed with either FAAH-1 or FAAH-2. […] The next day, cells were transfected, in duplicate, with 10 μg Vector control, flag-FAAH-1 or flag-FAAH-2 plasmids using Lipofectamine 2000 (Invitrogen) according to the manufacturer's protocol. 24 hours post transfection, cells were washed 1× in cold PBS, aspirated dry, and then scraped off the plate in the presence of 0.6 mL reaction buffer (50 mM HEPES, pH 9.0; 1 mM EDTA). Cells were then homogenated using a VWR VDI 12 Adaptable Homogenizer, on ice for 1 minute, and the sample was then clarified by centrifugation at 6,000 g for 5 minutes. The supernatant of this homogenated fraction was then used for FAAH hydrolysis assays. […] Gel densitometry was performed and the % FAAH extracted in each successive lysis conditions was determined according to standard procedures.
(§2) The following hydrolysis experiments were performed using COS-7 cells containing overexpressed FAAH-1 or FAAH-2. […] Briefly, the hydrolysis experiments were carried out in Eppendorf tubes using procedures similar to the one described above. […] At time=0, 1, and 3 h, the protein was precipitated with acetonitrile.

FAAH-2 = target: T2, FAAH-2 (Homo sapiens, UniProt Q6GMR7); assay: Hydrolysis in homogenate of COS-7 cells overexpressed with FAAH-2; format: biochemical; details: 5 μM inhibitor
T2 construct: expressed in transfected cells; host or cells: COS-7
T2 sequence (Q6GMR7 1-532): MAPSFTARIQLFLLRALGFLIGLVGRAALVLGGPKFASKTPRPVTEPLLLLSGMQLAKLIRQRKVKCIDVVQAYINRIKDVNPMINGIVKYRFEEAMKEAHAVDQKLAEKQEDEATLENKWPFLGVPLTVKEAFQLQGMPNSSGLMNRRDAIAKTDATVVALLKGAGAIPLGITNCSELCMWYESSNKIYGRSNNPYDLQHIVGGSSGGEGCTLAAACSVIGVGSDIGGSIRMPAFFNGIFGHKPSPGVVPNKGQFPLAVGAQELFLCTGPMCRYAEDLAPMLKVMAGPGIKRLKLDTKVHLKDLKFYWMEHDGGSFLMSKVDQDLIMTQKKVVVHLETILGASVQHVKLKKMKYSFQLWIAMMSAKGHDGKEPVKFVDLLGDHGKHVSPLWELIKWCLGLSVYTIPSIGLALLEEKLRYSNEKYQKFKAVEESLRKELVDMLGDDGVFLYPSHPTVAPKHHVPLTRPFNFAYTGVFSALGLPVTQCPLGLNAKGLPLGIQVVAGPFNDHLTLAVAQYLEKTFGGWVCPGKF
Protocol: as §1, §2

IL-1β = IL-1β transcript levels in LPS-stimulated RAW264.7 macrophages; format: cell-based; details: Mus musculus; RAW264.7, LPS 100 ng/ml; linked bioactive
Protocol: RAW264.7 macrophages were seeded at a density of 100,000 cells/well in a 96-well plate in DMEM supplemented with 10% FBS and penicillin:streptomycin. 16 hours later, medium was aspirated and replaced with 90 μL/well of serum-free DMEM. Linked bioactives were brought up in 100% ethanol to a concentration of 100 mM and then diluted 1:100 in 100% FBS for a stock solution consisting of 1 mM compound and 1% ethanol. These stock solutions were then diluted 1:10 in FBS supplemented with 1% ethanol to generate a 100 μM of the linked bioactives. 10 μL was then added to the RAW246.7 cells to generate final concentrations 10 μM of the linked bioactives or 10 μM each bioactive, along with vehicle only control. The linked bioactives were allowed to pre-incubate for 2 hours before stimulation of 100 ng/ml LPS (10 μL of 1 μg/ml LPS was added to each well). Following 3 hours of LPS stimulation, cells were washed once in 1×PBS, aspirated dry, and flash frozen in liquid nitrogen. RNA was then isolated and converted to cDNA using the Cells to cDNA kit (AMBION®) according to the manufacturer's protocol. IL-1β transcript levels were then measured using Taqman primer/probe assay sets (APPLIED BIOSYSTEMS®), normalized to GAPDH using the deltaCt method, and the data expressed relative to vehicle only control.

| SMILES | effect of FAAH inhibitor on hydrolysis of the linked bioactive by rat brain homogenate [1] | effect of inhibitor on rate of hydrolysis of compound I-1, FAAH-1 (FAAH-1; FIG. 9A) | effect of inhibitor on rate of formation of DHA from compound I-1, FAAH-1 (FAAH-1; FIG. 9C) | effect of inhibitor on hydrolysis of compound I-1, FAAH-2 (FAAH-2; FIG. 9B) | effect of inhibitor on formation of DHA from compound I-1, FAAH-2 (FAAH-2; FIG. 9D) | IC50 (IL-1β) [µM] |
| --- | --- | --- | --- | --- | --- | --- |
| NC(=O)c1cccc(-c2cccc(OC(=O)NC3CCCCC3)c2)c1 [URB597] | essentially eliminated | significantly reduced | significantly inhibited | significantly reduced | more effective in reducing the formation of DHA | – |
| CC/C=C\C/C=C\C/C=C\C/C=C\C/C=C\C/C=C\CCC(=O)N[C@@H](C)C(=O)O[C@H](C)[C@H](NC(=O)CC/C=C\C/C=C\C/C=C\C/C=C\C/C=C\C/C=C\CC)C(=O)OC [VI-2, (2S,3R)-2-((4Z,7Z,10Z,13Z,16Z,19Z)-docosa-4,7,10,13,16,19-hexaenoylamino)-3-[(S)-2-((4Z,7Z,10Z,13Z,16Z,19Z)-docosa-4,7,10,13,16,19-hexaenoylamino)-propionyloxy]-butyric acid methyl ester] | – | – | – | – | – | 10 |
